In ChEMBL document CHEMBL1201862, “PubChem BioAssay data set” (2004):
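Method: 48-hour compound exposure of cells in 96-well plates, five concentrations, linear interpolation of endpoints. Here, GI50 denotes the concentration required for 50% inhibition of growth.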 Calls of active or inactive are those of the source. No stated cut-off is given here; in the data, active = GI50 up to about 1.1 µM and inactive = higher.

Assays:
Assay in all cases: NCI anticancer screen, dose series, 48 h
HL-60 = tested on: HL-60
IGROV-1 = tested on: IGROV-1
EKVX = tested on: EKVX
786-0 = tested on: 786-0
T47D = tested on: T47D
DU-145 = tested on: DU-145
OVCAR-8 = tested on: OVCAR-8
HOP-92 = tested on: HOP-92
KM12 = tested on: KM12
UO-31 = tested on: UO-31
NCI-H460 = tested on: NCI-H460
MCF7 = tested on: MCF7
MDA-N = tested on: MDA-N
OVCAR-4 = tested on: OVCAR-4
NCI/ADR-RES = tested on: NCI/ADR-RES
TK-10 = tested on: TK-10
COLO 205 = tested on: COLO 205
SK-MEL-2 = tested on: SK-MEL-2
OVCAR-5 = tested on: OVCAR-5
HCT-116 = tested on: HCT-116
HT-29 = tested on: HT-29
HOP-62 = tested on: HOP-62
SNB-19 = tested on: SNB-19
A549 = tested on: A549
SF-539 = tested on: SF-539
UACC-257 = tested on: UACC-257
SK-OV-3 = tested on: SK-OV-3
SK-MEL-28 = tested on: SK-MEL-28
HCT-15 = tested on: HCT-15
SN12C = tested on: SN12C
PC-3 = tested on: PC-3
SNB-75 = tested on: SNB-75
ACHN = tested on: ACHN
HCC 2998 = tested on: HCC 2998
SF-295 = tested on: SF-295
M14 = tested on: M14
MOLT-4 = tested on: MOLT-4
CAKI-1 = tested on: CAKI-1
U-251 = tested on: U-251
MDA-MB-231 = tested on: MDA-MB-231
SK-MEL-5 = tested on: SK-MEL-5
LOX IMVI = tested on: LOX IMVI
NCI-H23 = tested on: NCI-H23
MDA-MB-435 = tested on: MDA-MB-435
NCI-H226 = tested on: NCI-H226
SW-620 = tested on: SW-620
A498 = tested on: A498
K562 = tested on: K562
UACC-62 = tested on: UACC-62
RXF 393 = tested on: RXF 393
RPMI-8226 = tested on: RPMI-8226
CCRF-CEM = tested on: CCRF-CEM
SF-268 = tested on: SF-268
Hs-578T = tested on: Hs-578T
SR = tested on: SR
Malme-3M = tested on: Malme-3M

## Oc1ccc(-c2csc(N/N=C3\NC/C(=C/c4ccc5c(c4)OCO5)S3)n2)cc1O
HL-60
  GI50: > 10 µM (inactive)
IGROV-1
  GI50: 20.6 µM (inactive)
EKVX
  GI50: 26.4 µM (inactive)
786-0
  GI50: 30.6 µM (inactive)
T47D
  GI50: 31.5 µM (inactive)
DU-145
  GI50: 26.7 µM (inactive)
OVCAR-8
  GI50: 29.2 µM (inactive)
HOP-92
  GI50: 38.5 µM (inactive)
KM12
  GI50: 17.3 µM (inactive)
UO-31
  GI50: 11.2 µM (inactive)
NCI-H460
  GI50: 31 µM (inactive)
MCF7
  GI50: 6.43 µM (inactive)
MDA-N
  GI50: 3.4 µM (inactive)
OVCAR-4
  GI50: 32.9 µM (inactive)
NCI/ADR-RES
  GI50: 42 µM (inactive)
TK-10
  GI50: 21.7 µM (inactive)
COLO 205
  GI50: 29.1 µM (inactive)
SK-MEL-2
  GI50: 10 µM (inactive)
OVCAR-5
  GI50: 47.2 µM (inactive)
HCT-116
  GI50: 29.3 µM (inactive)
HT-29
  GI50: 38.5 µM (inactive)
HOP-62
  GI50: 22.1 µM (inactive)
SNB-19
  GI50: 14.4 µM (inactive)
A549
  GI50: 45.5 µM (inactive)
SF-539
  GI50: 3.18 µM (inactive)
UACC-257
  GI50: 14.6 µM (inactive)
SK-OV-3
  GI50: > 100 µM (inactive)
SK-MEL-28
  GI50: 11.9 µM (inactive)
HCT-15
  GI50: 19.1 µM
SN12C
  GI50: 33.5 µM (inactive)
PC-3
  GI50: 26.4 µM (inactive)
SNB-75
  GI50: 1.73 µM (inactive)
ACHN
  GI50: 17 µM (inactive)
HCC 2998
  GI50: 40.6 µM (inactive)
SF-295
  GI50: 43.2 µM (inactive)
M14
  GI50: 11.2 µM (inactive)
MOLT-4
  GI50: 5.45 µM (inactive)
CAKI-1
  GI50: 32.4 µM (inactive)
U-251
  GI50: 22.1 µM (inactive)
MDA-MB-231
  GI50: 55.8 µM (inactive)
SK-MEL-5
  GI50: 9.82 µM (inactive)
LOX IMVI
  GI50: 11.6 µM (inactive)
NCI-H23
  GI50: 9.95 µM (inactive)
MDA-MB-435
  GI50: 3.21 µM (inactive)
NCI-H226
  GI50: 43.5 µM (inactive)
SW-620
  GI50: 35.4 µM (inactive)

## COc1cc(/C=C2\CCC(C)C3=C2N=c2s/c(=C/c4ccc(Cl)cc4)c(=O)n2C3c2cc(OC)c(OC)c(OC)c2)cc(OC)c1OC (stereo not given)
A498
  GI50: > 100 µM (inactive)
HL-60
  GI50: > 100 µM (inactive)
IGROV-1
  GI50: 20.5 µM (inactive)
K562
  GI50: > 100 µM (inactive)
EKVX
  GI50: > 100 µM (inactive)
786-0
  GI50: > 100 µM (inactive)
DU-145
  GI50: > 100 µM (inactive)
OVCAR-8
  GI50: > 100 µM (inactive)
HOP-92
  GI50: > 100 µM (inactive)
KM12
  GI50: > 100 µM (inactive)
UO-31
  GI50: > 100 µM (inactive)
MCF7
  GI50: > 100 µM (inactive)
UACC-62
  GI50: > 100 µM (inactive)
MDA-N
  GI50: > 100 µM (inactive)
RXF 393
  GI50: > 100 µM (inactive)
OVCAR-4
  GI50: > 100 µM (inactive)
TK-10
  GI50: > 100 µM (inactive)
SK-MEL-2
  GI50: > 100 µM (inactive)
OVCAR-5
  GI50: > 100 µM (inactive)
HCT-116
  GI50: > 100 µM (inactive)
RPMI-8226
  GI50: > 100 µM (inactive)
CCRF-CEM
  GI50: > 100 µM (inactive)
HT-29
  GI50: > 100 µM (inactive)
HOP-62
  GI50: > 100 µM (inactive)
SNB-19
  GI50: > 100 µM (inactive)
A549
  GI50: > 100 µM (inactive)
UACC-257
  GI50: > 100 µM (inactive)
SK-OV-3
  GI50: > 100 µM (inactive)
SK-MEL-28
  GI50: > 100 µM (inactive)
HCT-15
  GI50: > 100 µM
SN12C
  GI50: > 100 µM (inactive)
PC-3
  GI50: > 100 µM (inactive)
SF-268
  GI50: > 100 µM (inactive)
SNB-75
  GI50: 0.277 µM (active)
ACHN
  GI50: > 100 µM (inactive)
M14
  GI50: > 100 µM (inactive)
MOLT-4
  GI50: > 100 µM (inactive)
CAKI-1
  GI50: > 100 µM (inactive)
U-251
  GI50: > 100 µM (inactive)
MDA-MB-231
  GI50: > 100 µM (inactive)
Hs-578T
  GI50: > 100 µM (inactive)
SR
  GI50: > 100 µM (inactive)
SK-MEL-5
  GI50: > 100 µM (inactive)
LOX IMVI
  GI50: > 100 µM (inactive)
MDA-MB-435
  GI50: > 100 µM (inactive)
SW-620
  GI50: > 100 µM (inactive)

## COc1ccc(-c2coc3cc(O)cc(O)c3c2=O)cc1 [BIOCHANIN]
HL-60
  GI50: > 10 µM (inactive)
IGROV-1
  GI50: > 10 µM (inactive)
K562
  GI50: > 10 µM (inactive)
786-0
  GI50: > 10 µM (inactive)
T47D
  GI50: > 10 µM (inactive)
NCI-H460
  GI50: > 10 µM (inactive)
MCF7
  GI50: > 10 µM (inactive)
UACC-62
  GI50: > 10 µM (inactive)
RXF 393
  GI50: > 10 µM (inactive)
OVCAR-4
  GI50: > 10 µM (inactive)
NCI/ADR-RES
  GI50: > 10 µM (inactive)
COLO 205
  GI50: > 10 µM (inactive)
SK-MEL-2
  GI50: > 10 µM (inactive)
OVCAR-5
  GI50: > 10 µM (inactive)
RPMI-8226
  GI50: > 10 µM (inactive)
CCRF-CEM
  GI50: > 10 µM (inactive)
HOP-62
  GI50: > 10 µM (inactive)
A549
  GI50: > 10 µM (inactive)
SK-OV-3
  GI50: > 10 µM (inactive)
SK-MEL-28
  GI50: > 10 µM (inactive)
SF-268
  GI50: > 10 µM (inactive)
SNB-75
  GI50: > 10 µM (inactive)
ACHN
  GI50: > 10 µM (inactive)
M14
  GI50: > 10 µM (inactive)
MOLT-4
  GI50: > 10 µM (inactive)
CAKI-1
  GI50: > 10 µM (inactive)
U-251
  GI50: > 10 µM (inactive)
SR
  GI50: > 10 µM (inactive)
SK-MEL-5
  GI50: > 10 µM (inactive)
NCI-H23
  GI50: > 10 µM (inactive)
MDA-MB-435
  GI50: > 10 µM (inactive)
SW-620
  GI50: > 10 µM (inactive)
Malme-3M
  GI50: > 10 µM (inactive)
